Measurements reported in patent US20180064730A1 (priority 2014, published 2018).
Several values for one entry are separate records, joined by “and”; a condition that tells them apart may be missing. Equal values may be shown once. Entries after “also recorded” stand apart in the source; their conditions may differ. Read-outs that look alike come from different tables or passages of the source.

Key:
[1] = system: IL-8 secretion from CF lung epithelial cells; test: Suppression of constitutive IL-8 secretion from CF lung epithelial cells; format: cell-based, human; conditions: for IC50: constitutive IL-8 hypersecretion, read-out: K50 (concentration causing a 50% reduction of IL-8 secretion)
Excerpt: Analysis of cardiac glycoside activities identifies a structure-activity-relationship for IL-8 suppression. […] Using all the data we were also able to derive a structure-activity relationship (see Table 1). Briefly, suppression of IL-8 secretion from CF lung epithelial cells is optimally promoted by the presence of glycosyl moieties at the 3-position of the cholesterol nucleus, and by the absence of oxygen-containing substitutions at or near the 12-position on the C ring. Activity declines when glycosyl moieties are absent from the 3-position, and when oxygen-containing substitutions are made at or near the 12-position on the C ring. […] We therefore give the equatorial 12-position and its neighbors crucial negative pharmacophoric importance, and glycosidic substitution at the 3-position positive pharmacophoric importance for the control of IL-8 secretion from CF lung epithelial cells.
(§1) Previously published data had implicated a dysfunctional TNFα/NFκB signaling pathway as responsible for the pro-inflammatory phenotype of the CF lung. […] (46 Srivastava et al, 2004) (47 Yang Q, et al, 2005).

[2] = system: TNFα/NFκB signaling pathway; test: Reverse Phase Protein Microarray of IB3-1 and CFTR-repaired IB3-1/S9 cells; format: cell-based, human; conditions: ID90 concentrations; IB3-1 and IB3-1/S9 cells
Excerpt: as §1

[3] = system: Wuhan influenza virus induced lung inflammation; test: Rodent influenza lung inflammation model, lung cytokines/chemokines by ELISA; format: in vivo, cotton rat
Experimental: Applicant previously conducted a study on a mammal, a rodent with induced lung inflammation from Wuhan influenza virus.
Lung tissue was harvested on day 7, and assayed in terms of pg/ml for iFN-Gamma, GRO/KC, MTP-2, TNF-ALPHA, IL-1B, MCP-1. TGF-Beta, and GM-CSF. Rodents lack IL-8, and instead have GRO/KC and MIP-2.
Methods: The assays for different cytokines and chemokines were performed with commercial micro-sandwich ELISA assays. (Searchlight System, Pierce-Thermo). The results shown are for 22 patients, including 14 females and 8 males.

CF patients = test: Phase II clinical trial of digitoxin in cystic fibrosis: adverse events; conditions: for Pulm, upper_resp adverse events (cases) / Dermatolog adverse events / Gastrointestinal adverse events / General adverse events / Musculoskel adverse events / Neurological adverse events / Reproductive adverse events / Total (all) adverse events (cases): 28 days, n = 8; for Incidence Rate, all adverse events / Incidence Rate, pulmonary adverse events: person-time 224
Experimental: Experiment# 1.1. Study design and methods: The study was a randomized, double-blind, placebo controlled, repeat dosing escalation trial. Adults 18-45 years of age with a diagnosis of CF and meet Inclusion/exclusion criteria were selected for the trial. The 24 evaluable patients were studied at a single site, and randomized with respect to drug treatment and placebo at a ratio of 2:1, respectively. Screening included a 24 hour Holter monitor to screen for possible for baseline dysrhythmias. […] Dosing was once a day for 28 days with 8 patients in each group.
The inclusion criteria included (i) male or female, 18 to 45 years of age; (ii) confirmed diagnosis of CF by sweat test (a sweat chloride concentration≧60 meq/L), and a genotype consistent with a CF diagnosis; (iii) FEV 1, % PRED≧40%; (iv) clinically stable with no evidence of acute upper respiratory or lower respiratory tract infection or current pulmonary exacerbation; (v) ability to perform spirometry; (vi) weight≧45 kg at screening and at visit #1 (dosing).
During this period, subjects were not taking macrolide antibiotics.

[4] = system: TNFalpha-activated NFκB activation and IL-8 expression; conditions: CF airway epithelial cells; cited from earlier work
[5] = molecular target: T1, TNF-alpha-activated TNFR and TRADD (Homo sapiens, UniProt P19438+Q15628); test: Interaction between TNF-alpha-activated TNFR and TRADD
T1 sequence (Q15628 1-312): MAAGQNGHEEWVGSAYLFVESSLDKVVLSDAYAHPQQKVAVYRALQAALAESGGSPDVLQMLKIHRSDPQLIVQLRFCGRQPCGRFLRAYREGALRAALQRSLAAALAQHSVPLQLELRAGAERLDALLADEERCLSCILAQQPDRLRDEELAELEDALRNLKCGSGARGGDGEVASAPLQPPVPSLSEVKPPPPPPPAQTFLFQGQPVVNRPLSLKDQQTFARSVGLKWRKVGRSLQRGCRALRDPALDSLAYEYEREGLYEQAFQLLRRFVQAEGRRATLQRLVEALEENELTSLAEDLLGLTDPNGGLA
T1 sequence (P19438 22-455 limits assumed): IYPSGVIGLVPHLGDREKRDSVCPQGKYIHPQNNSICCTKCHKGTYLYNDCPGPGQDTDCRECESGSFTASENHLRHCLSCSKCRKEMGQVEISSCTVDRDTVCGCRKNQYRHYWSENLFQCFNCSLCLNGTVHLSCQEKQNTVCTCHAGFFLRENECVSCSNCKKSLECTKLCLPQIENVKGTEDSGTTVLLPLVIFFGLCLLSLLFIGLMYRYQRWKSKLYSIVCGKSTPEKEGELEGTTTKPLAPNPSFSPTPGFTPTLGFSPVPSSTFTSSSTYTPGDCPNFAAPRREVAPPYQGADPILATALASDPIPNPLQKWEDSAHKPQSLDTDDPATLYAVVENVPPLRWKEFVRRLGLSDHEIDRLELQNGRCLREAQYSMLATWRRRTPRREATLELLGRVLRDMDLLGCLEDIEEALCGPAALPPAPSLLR
Excerpt: Increased expression of TRADD is associated with a greater rate of decline in CF lung function. […] Trend-lines are based on data for female CF patients, who make up the majority of the patients.

[6] = system: control patients / heart failure patients; conditions: cited from earlier work
[7] = cited from earlier work
CF children = conditions: CF vs control children; cited from earlier work
[8] = 3, 10 and 30 mg/kg daily, lung harvested day 7

In the case of `CC(=O)O[C@H]1CC[C@]2(C=O)[C@H]3CC[C@]4(C)[C@@H](C5=CC(=O)OC5)CC[C@]4(O)[C@@H]3CC[C@]2(O)C1` [Acetyl Strophanthidin], the IC50 [1] is reported as 117 nM.
With `C[C@]12CC[C@H](O)C[C@H]1CC[C@@H]1[C@@H]2CC[C@]2(C)[C@@H](C3=CC(=O)OC3)CC[C@]12O` [Digitoxigenin] the IC50 ([1]; Homo sapiens, Epithelial cell) was 73.6 nM.
For `C[C@H]1O[C@@H](O[C@H]2[C@@H](O)C[C@H](O[C@H]3[C@@H](O)C[C@H](O[C@H]4CC[C@@]5(C)[C@H](CC[C@@H]6[C@@H]5CC[C@]5(C)[C@@H](C7=CC(=O)OC7)CC[C@]65O)C4)O[C@@H]3C)O[C@@H]2C)C[C@H](O)[C@@H]1O` [Digitoxin], the “CF-related constitutive phosphorylation of IKBα” value [2] was “significantly blocked”, the “CF-related constitutive phosphorylation of NFκB,p65” value [2] was “significantly blocked” and the “phosphorylation of IKKα” value [2] was “somewhat suppressed”. For the same compound, the “GRO/KC in lung tissue” value [3, 8] was “significant reductions; also recorded: suppressed”, the “IFN-gamma in lung tissue” value [3, 8] was “significant reductions” and the “IL-1B in lung tissue” value [3, 8] was “No significant changes”. For the same compound, the “MCP-1 in lung tissue” value [3, 8] was “significant reductions”, the “MIP-2 in lung tissue” value [3, 8] was “significant reductions; also recorded: suppressed” and the “TGF-B in lung tissue” value [3, 8] was “No significant changes”. The “TNF-alpha in lung tissue” value [3, 8] was “significant reductions; also recorded: reduced”, the “lung inflammation in rodent model” value ([3]; experimental model of lung inflammation) was “profound, dose-dependent reduction” and the “Pulm, upper_resp adverse events (cases)” value (CF patients; 0.05 mg by mouth daily) was 9. It also gave a Dermatolog adverse events (CF patients; 0.05 mg daily) of 0, a Gastrointestinal adverse events (CF patients; 0.05 mg daily) of 5 and a General adverse events (CF patients; 0.05 mg daily) of 3. For the same compound, the Musculoskel adverse events (CF patients; 0.05 mg daily) was 2, the Neurological adverse events (CF patients; 0.05 mg daily) was 8 and the Reproductive adverse events (CF patients; 0.05 mg daily) was 1. For the same compound, the “Total (all) adverse events (cases)” value (CF patients; 0.05 mg daily) was 29, the “Incidence Rate, all adverse events” value (CF patients; 0.05 mg daily) was 0.1295 and the “Incidence Rate, pulmonary adverse events” value (CF patients; 0.05 mg daily) was 0.04018. For the same compound, the “Inc. rate diff., all adverse events” value (CF patients; 0.05 mg vs placebo) was −0.008929, the “Inc. rate diff., pulmonary adverse events” value (CF patients; 0.05 mg vs placebo) was −0.008929 and the “Prev. frac. pop, all adverse events” value (CF patients; 0.05 mg vs placebo) was 0.03571. The “Prev. frac. pop, pulmonary adverse events” value (CF patients; 0.05 mg vs placebo) was 0.09091, the “prev. frac. ex., all adverse events” value (CF patients; 0.05 mg vs placebo) was 0.06897 and the “prev. frac. ex., pulmonary adverse events” value (CF patients; 0.05 mg vs placebo) was 0.1818. For the same compound, the “reduction in pulmonary, upper respiratory adverse events, significance” value (CF patients; 0.05 mg/day vs placebo) was “not statistically significant”, the “Pulm, upper_resp adverse events (cases)” value (CF patients; 0.10 mg by mouth daily) was 2 and the Dermatolog adverse events (CF patients; 0.10 mg daily) was 1. For the same compound, the Gastrointestinal adverse events (CF patients; 0.10 mg daily) was 5, the General adverse events (CF patients; 0.10 mg daily) was 3 and the Musculoskel adverse events (CF patients; 0.10 mg daily) was 1. The Neurological adverse events (CF patients; 0.10 mg daily) was 2, the Reproductive adverse events (CF patients; 0.10 mg daily) was 0 and the “Total (all) adverse events (cases)” value (CF patients; 0.10 mg daily) was 15. For the same compound, the “Incidence Rate, all adverse events” value (CF patients; 0.10 mg daily) was 0.06696-3 and 0.06696, the “Incidence Rate, pulmonary adverse events” value (CF patients; 0.10 mg daily) was 0.008929 and the “Inc. rate diff., all adverse events” value (CF patients; 0.10 mg vs 0.05 mg) was −0.0625. For the same compound, the “Inc. rate diff., pulmonary adverse events” value (CF patients; 0.10 mg vs 0.05 mg) was −0.03125, the “Prev. frac. pop, all adverse events” value (CF patients; 0.10 mg vs 0.05 mg) was 0.2414 and the “Prev. frac. pop, pulmonary adverse events” value (CF patients; 0.10 mg vs 0.05 mg) was 0.3889. The “prev. frac. ex., all adverse events” value (CF patients; 0.10 mg vs 0.05 mg) was 0.4828, the “prev. frac. ex., pulmonary adverse events” value (CF patients; 0.10 mg vs 0.05 mg) was 0.7778 and the “Inc. rate diff., all adverse events” value (CF patients; 0.10 mg vs placebo) was −0.05357. The “Inc. rate diff., pulmonary adverse events” value (CF patients; 0.10 mg vs placebo) was −0.04018, the “Prev. frac. pop, all adverse events” value (CF patients; 0.10 mg vs placebo) was 0.2222 and the “Prev. frac. pop, pulmonary adverse events” value (CF patients; 0.10 mg vs placebo) was 0.4091. For the same compound, the “prev. frac. ex., all adverse events” value (CF patients; 0.10 mg vs placebo) was 0.4444, the “prev. frac. ex., pulmonary adverse events” value (CF patients; 0.10 mg vs placebo) was 0.8182 and the “reduction in pulmonary, upper respiratory adverse events, significance” value (CF patients; 0.10 mg/day (high dose) vs 0.05 mg/day (low dose)) was “statistically significant”. For the same compound, the “reduction in pulmonary, upper respiratory adverse events, significance” value (CF patients; 0.10 mg/day vs placebo) was “statistically significant”, the serious adverse events (CF patients; clinical trial in CF patients) was “no serious adverse events” and the “TNFalpha-activated NFκB activation and IL-8 expression” value [4] was “blocks”. For the same compound, the “interaction between TNF-alpha-activated TNFR and TRADD” value [5] was “blocks”, the IC50 ([1]; Homo sapiens, Epithelial cell) was about 0.9 nM and the “incidence of adverse events vs digoxin” value ([6]; U.S. 1995-1998 retrospective, heart failure patients) was “approximately three-fold lower incidence”. For the same compound, the side effects ([6]; control patients, ca. 30 nM in the circulation) was “only modest, or in many cases, undetectable side effects”, the bioavailable ([7]; given by mouth) was 100% and the “bound to blood and tissue proteins” value ([7]; human, in vivo) was 90%.
In the case of `C[C@]12CC[C@H](O)C[C@H]1CC[C@@H]1[C@@H]2C[C@@H](O)[C@]2(C)[C@@H](C3=CC(=O)OC3)CC[C@]12O` [Digoxigenin], the IC50 ([1]; Homo sapiens, Epithelial cell) is reported as 34.1 nM.
In the case of `C[C@H]1O[C@@H](O[C@H]2[C@@H](O)C[C@H](O[C@H]3[C@@H](O)C[C@H](O[C@H]4CC[C@@]5(C)[C@H](CC[C@@H]6[C@@H]5C[C@@H](O)[C@]5(C)[C@@H](C7=CC(=O)OC7)CC[C@]65O)C4)O[C@@H]3C)O[C@@H]2C)C[C@H](O)[C@@H]1O` [Digoxin], the “exercise capacity or exercising cardiac function” value (CF children) is given as “no difference”, the IC50 ([1]; Homo sapiens, Epithelial cell) is given as 27 nM and the IC50 [1] is given as 27.1 nM.
In the case of `CO[C@H]1C[C@H](O[C@H]2CC[C@@]3(C)[C@H](CC[C@@H]4[C@@H]3CC[C@]3(C)[C@@H](C5=CC(=O)OC5)[C@@H](OC(C)=O)C[C@]43O)C2)O[C@@H](C)[C@@H]1O` [Oleandrin], the IC50 ([1]; Homo sapiens, Epithelial cell) is reported as 2 nM.
Work on `C[C@@H]1O[C@@H](O[C@H]2C[C@@H](O)[C@]3(CO)[C@H]4[C@H](O)C[C@]5(C)[C@@H](C6=CC(=O)OC6)CC[C@]5(O)[C@@H]4CC[C@]3(O)C2)[C@H](O)[C@H](O)[C@H]1O` [Ouabain] yielded an IC50 ([1]; Homo sapiens, Epithelial cell) of 7.9 nM.
With Digitoxigenin 3,12-diAc the “activity for suppression of IL-8 secretion” value [1] was “Activity is altogether lost”.
